Key:
[1] = target: T1, recombinant human enzyme CK-1δ (Homo sapiens, UniProt P48730); assay: Enzyme inhibition assay, Luminometer Kinase-GLO method, CK-1δ; format: biochemical; details: for IC50: casein substrate, 4 μM ATP, 60 minutes at 30° C., read-out: Inhibitory Concentration 50 (IC50) CK-1δ
T1 construct: purchased Millipore Iberica SAU
Experimental: (§1) Enzyme inhibition assays were performed using the Luminometer Kinase-GLO® method. Recombinant human enzyme CK-1δ was purchased from Millipore Iberica SAU and recombinant human enzyme CK-1ε was purchased from Invitrogen. The phosphorylation substration chosen was casein. The Luminescent Kinase Kit (catalogue no. V6711) was obtained from Promega. ATP and other reagents were purchased from Sigma-Aldrich (St. Louis, Mo.).
(§2) The assays were conducted in buffer using 96-well plates. In a typical assay: 10 μL of the test compound (dissolved in dimethylsulfoxide at a concentration of 1 mM and, in turn, dissolved in buffer to the required concentration for the experiment) and 10 μL (16 ng) of the CK-1δ enzyme or 10 μL (50 ng) of the CK-1ε enzyme row were added to each well followed by 20 μL of buffer containing 0.1% casein as substrate and 4 μM of ATP. The assay buffer contained: 50 mM HEPES, pH 7.5; 0.01% Brij-35; 10 mM MgCl2; 1 mM EGTA and 0.01% NaN3. […] After incubating for 60 minutes at 30° C., the enzymatic reaction was stopped using 40 μL of Kinase-GLO® reagent. Luminescence was measured after ten minutes using a FLUOstar Optima (BMG Labtechnologies GmbH, Offenburg, Germany) multimode reader. The activity was proportional to the difference between the total and consumed ATP. Inhibition activities were calculated in accordance with the maximum activity measured in the absence of inhibitor. IC50 is defined as the concentration of each compound that reduces enzyme activity by 50% with respect to that obtained without inhibitor.

[2] = target: T2, recombinant human enzyme CK-1ε (Homo sapiens, UniProt P49674); assay: Enzyme inhibition assay, Luminometer Kinase-GLO method, CK-1ε; format: biochemical; details: for IC50: casein substrate, 4 μM ATP, 60 minutes at 30° C., read-out: Inhibitory Concentration 50 (IC50) CK-1ε
T2 construct: purchased Invitrogen
T2 sequence (P49674 whole entry): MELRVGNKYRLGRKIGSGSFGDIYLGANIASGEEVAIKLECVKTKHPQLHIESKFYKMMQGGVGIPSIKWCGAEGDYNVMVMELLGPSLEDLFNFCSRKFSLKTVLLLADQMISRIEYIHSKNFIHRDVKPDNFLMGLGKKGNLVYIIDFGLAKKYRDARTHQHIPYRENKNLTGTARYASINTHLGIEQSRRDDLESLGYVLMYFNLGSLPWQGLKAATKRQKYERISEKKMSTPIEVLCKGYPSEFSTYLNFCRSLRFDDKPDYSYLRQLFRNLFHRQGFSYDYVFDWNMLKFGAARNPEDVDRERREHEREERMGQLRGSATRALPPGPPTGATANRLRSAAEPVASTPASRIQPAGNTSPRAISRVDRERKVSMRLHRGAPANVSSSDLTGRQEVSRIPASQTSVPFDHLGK
Experimental: as §1, §2

T1 sequence (P48730 whole entry): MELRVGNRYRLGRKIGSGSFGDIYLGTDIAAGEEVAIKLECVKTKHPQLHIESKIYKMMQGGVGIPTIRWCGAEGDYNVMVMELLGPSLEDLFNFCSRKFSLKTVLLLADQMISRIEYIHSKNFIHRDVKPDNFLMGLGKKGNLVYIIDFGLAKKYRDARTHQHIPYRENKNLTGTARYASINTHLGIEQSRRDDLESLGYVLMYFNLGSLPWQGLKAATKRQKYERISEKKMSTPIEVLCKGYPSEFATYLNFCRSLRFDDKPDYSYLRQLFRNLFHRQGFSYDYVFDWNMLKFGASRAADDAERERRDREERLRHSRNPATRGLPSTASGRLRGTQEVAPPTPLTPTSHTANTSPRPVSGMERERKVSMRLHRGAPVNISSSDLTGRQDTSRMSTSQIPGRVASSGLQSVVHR

| Compound | IC50 [1] [µM] | IC50 [2] [µM] | inhibition at 10 µM [2] [%] | also measured |
| --- | --- | --- | --- | --- |
| COc1ccc(OC)c(CC(=O)Nc2nc3ccc(C(F)(F)F)cc3s2)c1 [Compound 29, N-(6-trifluoromethylbenzothiazole-2-yl)-2-(2,5-dimethoxyphenyl)acetamide] | 0.19 | 3.14 |  |  |
| COc1ccccc1CC(=O)Nc1nc2ccc(Cl)cc2s1 [Compound 31, N-(6-chlorobenzothiazole-2-yl)-2-(2-methoxyphenyl)acetamide] | 0.32 | 1.15 |  |  |
| COc1ccccc1CC(=O)Nc1nc2ccc(Br)cc2s1 [Compound 32, N-(6-bromobenzothiazole-2-yl)-2-(2-methoxyphenyl)acetamide] | 0.26 | 1.03 |  |  |
| O=C(Nc1nc2ccccc2s1)C(c1ccccc1)c1ccccc1 [Compound 33, N-(benzothiazole-2-yl)-2,2-diphenylacetamide] | 1.96 | 7.31 |  |  |
| O=C(CC(c1ccccc1)c1ccccc1)Nc1nc2ccccc2s1 [Compound 34, N-(benzothiazole-2-yl)-3,3-diphenylpropanamide] | 2.5 | 9.73 |  |  |
| O=C(COCc1ccccc1)Nc1nc2ccccc2s1 [Compound 35, N-(benzothiazole-2-yl)-2-benzyloxyacetamide] | 4.37 |  | 48 |  |
| O=C(CNC(=O)c1ccccc1)Nc1nc2ccccc2s1 [Compound 36, N-[2-(benzothiazole-2-ylamine)-2-oxoethyl]benzamide] | 7.29 |  | 48 |  |
| O=C(CNC(=O)C(c1ccccc1)c1ccccc1)Nc1nc2ccccc2s1 [Compound 37, N-(benzothiazole-2-yl)-2-(2,2-diphenylacetamide)acetamide] | 1.93 | 13 |  |  |
| O=C(Cc1ccccc1)NCC(=O)Nc1nc2ccccc2s1 [Compound 38, N-(benzothiazole-2-yl)-2-(2-phenylacetamide)acetamide] | 6.33 |  | 37 |  |
| CCOc1ccc2nc(NC(=O)C(c3ccccc3)c3ccccc3)sc2c1 [Compound 39, N-(6-ethoxybenzothiazole-2-yl)-2,2-diphenylacetamide] | 2.82 | 7.86 |  |  |
| CCOC(=O)c1ccc2nc(NC(=O)C(c3ccccc3)c3ccccc3)sc2c1 [Compound 40, Carboxylate[2-(2,2-diphenylacetamide)benzothiazole-6-yl]ethyl] | 6.68 | 1.6 |  |  |
| NS(=O)(=O)c1ccc2nc(NC(=O)C(c3ccccc3)c3ccccc3)sc2c1 [Compound 41, N-(6-sulfamoylbenzothiazole-2-yl)-2,2-diphenylacetamide] |  |  | 10 | inhibition at 10 µM [1]: 10% |
| CCNS(=O)(=O)c1ccc2nc(NC(=O)C(c3ccccc3)c3ccccc3)sc2c1 [Compound 42, N-(6-(N-ethylsulfamoyl)benzothiazole-2-yl)-2,2-diphenylacetamide] |  |  | 10 | inhibition at 10 µM [1]: 10% |
| CCCCNS(=O)(=O)c1ccc2nc(NC(=O)C(c3ccccc3)c3ccccc3)sc2c1 [Compound 43, N-(6-(N-butylsulfamoyl)benzothiazole-2-yl)-2,2-diphenylacetamide] |  |  | 10 | inhibition at 10 µM [1]: 10% |
| CCN(CC)S(=O)(=O)c1ccc2nc(NC(=O)C(c3ccccc3)c3ccccc3)sc2c1 [Compound 44, N-(6-(N,N-diethylsulfamoyl)benzothiazole-2-yl)-2,2-diphenylacetamide] | 9.83 | 3.47 |  |  |
| CCOc1ccc2nc(NC(=O)Cc3ccc(OC)cc3)sc2c1 [Compound 45, N-(6-ethoxybenzothiazole-2-yl)-2-(4-methoxyphenyl)acetamide] | 1.09 | 9.49 |  |  |
| COc1ccc(NC(=O)Nc2nc3ccc(C(F)(F)F)cc3s2)cc1 [Compound 46, N-(6-trifluoromethylbenzothiazole-2-yl)-N′-(4-methoxyphenyl)urea] | 5.5 |  | 29 |  |
| O=C(CCc1cccc(Cl)c1)Nc1nc2ccccc2s1 [Compound 47, N-(benzothiazole-2-yl)-3-(3-chlorophenyl)propanamide] | 3.58 |  | 31 |  |
| CCOc1ccc2nc(NC(=O)Cc3cccc(Cl)c3)sc2c1 [Compound 48, N-(6-ethoxybenzothiazole-2-yl)-2-(3-chlorophenyl)acetamide] | 1.21 | 9.75 |  |  |
| COc1ccc2nc(NC(=O)Cc3ccccc3Cl)sc2c1 [Compound 49, N-(6-methoxybenzothiazole-2-yl)-2-(2-chlorophenyl)acetamide] | 9.71 |  | 30 |  |
| CCOc1ccc2nc(NC(=O)Cc3ccccc3Cl)sc2c1 [Compound 50, N-(6-ethoxybenzothiazole-2-yl)-2-(2-chlorophenyl)acetamide] | 17.4 |  | 20 |  |
| CCOc1ccc2nc(NC(=O)Cc3ccccc3OC)sc2c1 [Compound 52, N-(6-ethoxybenzothiazole-2-yl)-2-(2-methoxyphenyl)acetamide] | 5.76 |  | 46 |  |
| COc1ccc2nc(NC(=O)Cc3ccc(Cl)c(Cl)c3)sc2c1 [Compound 53, N-(6-methoxybenzothiazole-2-yl)-2-(3,4-dichlorophenyl)acetamide] | 1.24 | 16.5 |  |  |
| CCOc1ccc2nc(NC(=O)Cc3ccc(Cl)c(Cl)c3)sc2c1 [Compound 54, N-(6-ethoxybenzothiazole-2-yl)-2-(3,4-dichlorophenyl)acetamide] | 3.43 | 14.2 |  |  |
| COc1ccc2nc(NC(=O)Cc3cc(OC)c(OC)c(OC)c3)sc2c1 [Compound 55, N-(6-methoxybenzothiazole-2-yl)-2-(3,4,5-trimethoxyphenyl)acetamide] | 6.65 | 17.7 |  |  |
| CCOc1ccc2nc(NC(=O)Cc3cc(OC)c(OC)c(OC)c3)sc2c1 [Compound 56, N-(6-ethoxybenzothiazole-2-yl)-2-(3,4,5-trimethoxyphenyl)acetamide] | 1.43 | 9.83 |  |  |
| COc1cc(/C=C/C(=O)Nc2nc3ccc(S(=O)(=O)N(C)C)cc3s2)cc(OC)c1OC [Compound 57, (E)-N-(6-(N,N-dimethylsulfamoyl)benzothiazole-2-yl)-3-(3,4,5-trimethoxyphenyl) acrylamide] |  |  |  | CK-1δ inhibition % @ 10 μM ([1]; @ 10 μM): 10% @; CK-1ε inhibition % @ 10 μM ([2]; @ 10 μM): 10% @ |
| COc1ccccc1CC(=O)Nc1nc2ccc(F)cc2s1 [Compound 59, N-(6-fluorobenzothiazole-2-yl)-2-(2-methoxyphenyl)acetamide] | 1.17 | 4.51 |  |  |

Reference: patent US9592224B2, “Substituted benzothiazoles and therapeutic uses thereof for the treatment of human diseases” (CONSEJO SUPERIOR DE INVESTIGACIONES CIENTÍFICAS, priority 2013, dated 2017)
